Data: patent US20230390292A1, “REGIMENS FOR THE TREATMENT OF HAIR LOSS DISORDERS WITH DEUTERATED JAK INHIBITORS” (Sun Pharmaceutical Industries, Inc., priority 2020, published 2023)

Experiments:
Format in all cases: in vivo, human
[1] = test system: subjects with alopecia areata; test: Open-label extension study (OLE), SALT score after dose reduction
Protocol: In an ongoing open-label extension study, subjects who were previously enrolled in a qualifying clinical study (including the study described in Example 1) and received either a total daily dose of 16 mg of Compound (I) (CTP-543, phosphate salt), a total daily dose of 24 mg of CTP-543, or placebo, and completed through the 24-week treatment period, were eligible to enroll in an open-label extension study (OLE) and continue to receive treatment with CTP-543 phosphate. A total of 152 subjects were enrolled in the OLE. In the OLE, subjects received daily treatment with CTP-543 at a dose of 8 mg BID or 12 mg BID (see FIG. 8). Dose adjustments were allowed at the investigator's discretion. One subject enrolled in the OLE, who received a daily dose of 24 mg QD of CTP-543 for approximately 9 months (i.e., the 24-week study period and the initial 3 months of the OLE), experienced hair growth at that dose (SALT score of zero, i.e., full regrowth of hair prior to dose reduction). The subject then had their dose reduced to a daily dose of 8 mg BID of CTP-543 phosphate. After approximately 7 months in the OLE receiving the lower daily dose of 8 mg BID of CTP-543, the subject continued to substantially maintain hair regrowth, with a SALT score of 7.92.

[2] = test system: adult patients with moderate-to-severe alopecia areata; test: Phase 2a trial, safety (treatment emergent adverse events)
Protocol: (§1) A Phase 2a trial was conducted to evaluate the safety and efficacy of Compound (I) (CTP-543) in subjects with alopecia, with the primary efficacy analysis at week 24. The Phase 2a trial was a double-blind, randomized, placebo-controlled trial to evaluate the safety and efficacy of Compound (I) in adult patients with moderate-to-severe alopecia areata. Patients were sequentially randomized to receive one of three doses of Compound I as the phosphate salt (e.g., 10.5 mg of Compound (I) phosphate salt is equivalent to 8 mg of Compound (I) free base). The doses of Compound (I) were 4, 8 (i.e., about 10.5 mg of Compound (I) phosphate salt), and 12 mg twice daily, and there was also a patient group receiving placebo. The primary outcome measure utilized the severity of alopecia tool (SALT) after 24 weeks of dosing.
In the preliminary analysis of the placebo, 4 mg, and 8 mg groups, there were only 3 Grade 3/4 hematology events, distributed equally across the placebo, 4 mg, and 8 mg groups.

[3] = test system: adult patients with moderate-to-severe alopecia areata; test: Phase 2a trial, efficacy by severity of alopecia tool (SALT)
Excerpt: The efficacy of treatment of hair loss disorders such as alopecia areata can be measured in a variety of ways, some of which are known in the art. For example, the “severity of alopecia tool”, otherwise known as SALT, is a validated assessment scale developed by the National Alopecia Areata Foundation working committee—to evaluate the degree of hair loss. See, e.g., Olsen E A, Hordinsky M K, Price V H, et al. Alopecia areata investigational assessment guidelines—Part II. J Am Acad Dermatol 2004: 51: 440-447 (incorporated herein by reference). The SALT score is calculated for a patient by measuring the percentage of hair loss in each of the 4 areas of the scalp and adding the total to achieve a composite score. Hair regrowth is reflected by a decrease in the SALT score. For example, no hair on the scalp would have a SALT score of 100 while complete hair regrowth would be a SALT score of 0. In certain embodiments, methods of treatment as described herein can provide a SALT score improvement of at least 10 points after treatment (for example, from a SALT score of 100 prior to treatment to a SALT score of 90 after treatment). In further embodiments, methods of treatment as described herein can provide a SALT score improvement of at least 20 points, 30 points, 40 points, 50 points, 60 points, 70 points, 80 points, 90 points, or 100 points. In certain embodiments, methods of treatment as described herein can provide after treatment at least a 20% improvement from baseline in the patient's SALT score, or at least a 30% improvement from baseline in the patient's SALT score, or at least a 40% improvement from baseline in the patient's SALT score, or at least a 50% improvement from baseline in the patient's SALT score, or at least a 60% improvement from baseline in the patient's SALT score, or at least a 70% improvement from baseline in the patient's SALT score, or at least a 75% improvement from baseline in the patient's SALT score or at least a 80% improvement from baseline in the patient's SALT score, or at least a 90% improvement from baseline in the patient's SALT score.
as §1
Interim top line analysis for the 4 mg, 8 mg, and 12 mg cohorts is discussed below. The primary endpoint for the study was a 50% relative reduction in SALT between Week 24 and baseline.
58% of patients treated with 12 mg BID (twice daily) and 47% of patients treated with 8 mg BID (twice daily) of CTP-543 achieved a ≥50% reduction in their overall SALT score compared to 8.6% placebo (p<0.001). In addition, 42% of patients treated with 12 mg BID (p<0.001) and 29% of patients treated with 8 mg BID (p<0.05) of CTP-543 achieved a ≥75% reduction in their overall SALT score compared to 7% placebo. Further, 36% of patients treated with 12 mg BID (p<0.001) and 16% of patients treated with 8 mg BID (p<0.05) of CTP-543 achieved a ≥90% reduction in their overall SALT score compared to 2% placebo. 21% of patients treated with 4 mg BID of CTP-543 achieved a ≥50% reduction in their overall SALT score compared to 8.6% placebo (not significant). […] Significant changes in SALT score were observed starting at 12 weeks for the 12 mg and 8 mg cohorts compared to placebo (p<0.05).

Question: Which results are given for [2H]C1([2H])C([C@@H](CC#N)n2cc(-c3ncnc4[nH]ccc34)cn2)C([2H])([2H])C([2H])([2H])C1([2H])[2H] [CTP-543, (R)-3-(4-(7H-pyrrolo[2,3-d]pyrimidin-4-yl)-1H-pyrazol-1-yl)-3-(cyclopentyl-2,2,3,3,4,4,5,5-d8)propanenitrile]?
Answer: SALT score prior to dose reduction ([1]; one subject, 24 mg QD for approximately 9 months): zero; SALT score after dose reduction ([1]; same subject, approximately 7 months at 8 mg BID after 24 mg QD): 7.92; Acne, patients (%) ([2]; 4 mg twice daily): 4 (13.8%); Blood creatine phosphokinase increased, patients (%) ([2]; 4 mg twice daily): 3 (10.3%); Cough, patients (%) ([2]; 4 mg twice daily): 4 (13.8%); Diarrhoea, patients (%) ([2]; 4 mg twice daily): 3 (10.3%); Folliculitis, patients (%) ([2]; 4 mg twice daily): 3 (10.3%); Headache, patients (%) ([2]; 4 mg twice daily): 5 (17.2%); LDL increase, patients (%) ([2]; 4 mg twice daily): 0; Nasopharyngitis, patients (%) ([2]; 4 mg twice daily): 3 (10.3%); Nausea, patients (%) ([2]; 4 mg twice daily): 4 (13.8%); Oroharyngeal pain, patients (%) ([2]; 4 mg twice daily): 3 (10.3%); Upper respiratory tract infection, patients (%) ([2]; 4 mg twice daily): 2 (6.9%); Acne, patients (%) ([2]; 8 mg twice daily): 4 (10.5%); Blood creatine phosphokinase increased, patients (%) ([2]; 8 mg twice daily): 2 (5.3%); Cough, patients (%) ([2]; 8 mg twice daily): 1 (2.6%); Diarrhoea, patients (%) ([2]; 8 mg twice daily): 1 (2.6%); Folliculitis, patients (%) ([2]; 8 mg twice daily): 2 (5.3%); Headache, patients (%) ([2]; 8 mg twice daily): 10 (26.3%); LDL increase, patients (%) ([2]; 8 mg twice daily): 4 (10.5%); Nasopharyngitis, patients (%) ([2]; 8 mg twice daily): 3 (7.9%); Nausea, patients (%) ([2]; 8 mg twice daily): 4 (10.5%); Oroharyngeal pain, patients (%) ([2]; 8 mg twice daily): 2 (5.3%); Upper respiratory tract infection, patients (%) ([2]; 8 mg twice daily): 2 (5.3%); Acne, patients (%) ([2]; 12 mg twice daily): 6 (16.7%); Blood creatine phosphokinase increased, patients (%) ([2]; 12 mg twice daily): 1 (2.8%); Cough, patients (%) ([2]; 12 mg twice daily): 2 (5.6%); Diarrhoea, patients (%) ([2]; 12 mg twice daily): 0; Folliculitis, patients (%) ([2]; 12 mg twice daily): 1 (2.8%); Headache, patients (%) ([2]; 12 mg twice daily): 7 (19.4%); LDL increase, patients (%) ([2]; 12 mg twice daily): 0; Nasopharyngitis, patients (%) ([2]; 12 mg twice daily): 9 (25.0%); Nausea, patients (%) ([2]; 12 mg twice daily): 1 (2.8%); Oroharyngeal pain, patients (%) ([2]; 12 mg twice daily): 1 (2.8%); Upper respiratory tract infection, patients (%) ([2]; 12 mg twice daily): 7 (19.4%); serious adverse events ([2]; 4, 8, 12 mg BID, 24 weeks): no serious adverse events; tolerability of treatment ([2]; 4, 8, 12 mg BID, 24 weeks): generally well-tolerated; Grade 3/4 hematology events ([2]; preliminary analysis, total, distributed equally across placebo, 4 mg and 8 mg groups): 3; separation from placebo ([3]; 4 mg BID, all measures): failed to separate from placebo on all measures; patients achieving a ≥50% reduction in overall SALT score ([3]; 4 mg BID, week 24, vs 8.6% placebo (not significant)): 21%; difference from placebo on SALT measures ([3]; 8 mg BID and 12 mg BID, week 24): significantly different from placebo on all SALT measures; patients achieving a ≥90% reduction in overall SALT score ([3]; 8 mg BID, vs 2% placebo (p<0.05)): 16%; patients achieving a ≥75% reduction in overall SALT score ([3]; 8 mg BID, vs 7% placebo (p<0.05)): 29%; patients achieving a ≥50% reduction in overall SALT score ([3]; 8 mg BID, week 24, vs 8.6% placebo (p<0.001)): 47%; effect of 12 mg BID compared to 8 mg BID ([3]; 12 mg BID vs 8 mg BID): numerically superior and generally produced faster onset and greater effect; patients achieving a ≥90% reduction in overall SALT score ([3]; 12 mg BID, vs 2% placebo (p<0.001)): 36%; patients achieving a ≥75% reduction in overall SALT score ([3]; 12 mg BID, vs 7% placebo (p<0.001)): 42%; patients achieving a ≥50% reduction in overall SALT score ([3]; 12 mg BID, week 24, vs 8.6% placebo (p<0.001)): 58%; start of significant changes in SALT score compared to placebo ([3]; 12 mg and 8 mg cohorts, p<0.05): 12 weeks; difference of 12 mg BID and 8 mg BID dose groups from 4 mg BID dose group ([3]; p<0.05): significantly different
